Results as given in ChEMBL document CHEMBL3885861, “Open TG-GATES”.

Organism: Rattus norvegicus
Assay: Open TG-GATES - Regimen: Single
Type: toxicity, organism-based, Sprague-Dawley
Parameters: regimen Single, gender Male, age 6 weeks
Conditions: in vivo, iv, route intravenous injection; for Bas / Eos / Fbg / Lym / MCH / MCHC / MCV / Mono / Neu / PT / Plat / RBC / Ret / WBC / APTT / Hb / Ht: tissue Blood; for KIDNEY_L / KIDNEY_R / KIDNEY_TOTAL: tissue Kidney; for LIVER: tissue Liver; for ALP / ALT / AST / BUN / CRE / DBIL / GLC / IP / K / PL / RALB / TBIL / TC / TG / TP / gamma-GTP / LDH / Na: tissue Plasma
[1] = 0 mg/kg, 3 h, dose level Control
[2] = 0 mg/kg, 6 h, dose level Control
[3] = 0 mg/kg, 9 h, dose level Control
[4] = 0 mg/kg, 24 h, dose level Control

## CARBOPLATIN
[1]
  TERMINAL_BW: 198.4 g
  Bas: 0%
  Eos: 0.4%
  Fbg: 277.4 mg/dL
  Lym: 80%
  MCH: 21.1 pg
  MCHC: 32.1%
  MCV: 65.9 fL
  Mono: 2.2%
  Neu: 16.2%
  PT: 16 s
  Plat: 125.4 x10_4/uL
  RBC: 633.2 x10_4/ul
  Ret: 6.4%
  WBC: 107.8 x10_2/uL
  KIDNEY_L: 0.9 g
  KIDNEY_R: 0.9 g
  KIDNEY_TOTAL: 1.8 g
  LIVER: 9.1 g
  ALP: 1848.6 IU/L
  ALT: 47 IU/L
  AST: 86.2 IU/L
  BUN: 13.6 mg/dL
  CRE: 0.2 mg/dL
  DBIL: 0 mg/dL
  GLC: 197.2 mg/dL
  IP: 8.3 mg/dL
  K: 3.9 meq/L
  PL: 127.8 mg/dL
  RALB: 3 g/dL
  TBIL: 0.012 mg/dL
  TC: 71.8 mg/dL
  TG: 43 mg/dL
  TP: 5.5 g/dL
  gamma-GTP: 1.2 IU/L
[2]
  TERMINAL_BW: 200.5 g
  APTT: 24.3 s
  Bas: 0%
  Eos: 0.8%
  Fbg: 274.2 mg/dL
  Lym: 80.8%
  MCV: 64 fL
  Mono: 2.6%
  Neu: 15.4%
  PT: 16.1 s
  Plat: 119.1 x10_4/uL
  RBC: 645.6 x10_4/ul
  Ret: 6.5%
  WBC: 98 x10_2/uL
  KIDNEY_L: 0.9 g
  KIDNEY_R: 0.9 g
  KIDNEY_TOTAL: 1.8 g
  LIVER: 8.5 g
  ALP: 1354.4 IU/L
  AST: 77 IU/L
  BUN: 11.4 mg/dL
  CRE: 0.2 mg/dL
  DBIL: 0 mg/dL
  GLC: 180.6 mg/dL
  IP: 9.3 mg/dL
  K: 4.4 meq/L
  LDH: 202.4 IU/L
  PL: 128 mg/dL
  RALB: 2.9 g/dL
  TBIL: 0.01 mg/dL
  TC: 74.2 mg/dL
  TG: 74.2 mg/dL
  TP: 5.3 g/dL
  gamma-GTP: 1.4 IU/L
[3]
  TERMINAL_BW: 195.2 g
  APTT: 24.6 s
  Bas: 0%
  Eos: 0.6%
  Fbg: 296.4 mg/dL
  Hb: 13 g/dL
  Lym: 77.2%
  MCHC: 31.9%
  MCV: 64.4 fL
  Mono: 2%
  Neu: 19.8%
  PT: 16 s
  Plat: 121.6 x10_4/uL
  RBC: 635.2 x10_4/ul
  Ret: 6.3%
  WBC: 80.5 x10_2/uL
  KIDNEY_L: 0.9 g
  KIDNEY_R: 0.9 g
  KIDNEY_TOTAL: 1.8 g
  LIVER: 8.2 g
  ALP: 1521.4 IU/L
  ALT: 38.8 IU/L
  AST: 75.2 IU/L
  CRE: 0.2 mg/dL
  DBIL: 0 mg/dL
  GLC: 182.2 mg/dL
  IP: 9.7 mg/dL
  K: 4.3 meq/L
  LDH: 155 IU/L
  Na: 140.4 meq/L
  PL: 123.6 mg/dL
  RALB: 2.9 g/dL
  TBIL: 0.008 mg/dL
  TC: 72.4 mg/dL
  TG: 57.2 mg/dL
  TP: 5.3 g/dL
  gamma-GTP: 1 IU/L
[4]
  TERMINAL_BW: 214.9 g
  APTT: 23.2 s
  Bas: 0%
  Eos: 1%
  Fbg: 280.2 mg/dL
  Lym: 82.8%
  MCHC: 32.1%
  MCV: 63 fL
  Mono: 2.4%
  PT: 16.6 s
  Plat: 124.1 x10_4/uL
  RBC: 648.4 x10_4/ul
  Ret: 5.2%
  WBC: 108.2 x10_2/uL
  KIDNEY_L: 1 g
  KIDNEY_R: 1 g
  KIDNEY_TOTAL: 2 g
  LIVER: 9.7 g
  ALP: 1592.8 IU/L
  ALT: 42.2 IU/L
  AST: 73 IU/L
  BUN: 16.6 mg/dL
  CRE: 0.2 mg/dL
  DBIL: 0 mg/dL
  GLC: 183 mg/dL
  IP: 7.2 mg/dL
  K: 4.5 meq/L
  LDH: 175 IU/L
  Na: 140.4 meq/L
  PL: 133.4 mg/dL
  RALB: 2.9 g/dL
  TBIL: 0.006 mg/dL
  TC: 69.6 mg/dL
  TG: 84.4 mg/dL
  TP: 5.4 g/dL
  gamma-GTP: 1.2 IU/L
10 mg/kg, 3 h, dose level Low
  TERMINAL_BW: 205.7 g
  Bas: 0%
  Eos: 1%
  Fbg: 269.2 mg/dL
  Hb: 12.9 g/dL
  Lym: 80.4%
  MCH: 21.1 pg
  MCHC: 32%
  MCV: 66 fL
  Mono: 2.4%
  PT: 15.4 s
  Plat: 126.7 x10_4/uL
  RBC: 612.6 x10_4/ul
  Ret: 6.2%
  WBC: 92.7 x10_2/uL
  KIDNEY_L: 1 g
  KIDNEY_R: 0.9 g
  KIDNEY_TOTAL: 1.9 g
  LIVER: 9.7 g
  ALP: 1526 IU/L
  ALT: 43.6 IU/L
  AST: 85.4 IU/L
  CRE: 0.2 mg/dL
  DBIL: 0.002 mg/dL
  GLC: 185 mg/dL
  IP: 7.9 mg/dL
  K: 3.9 meq/L
  LDH: 228.2 IU/L
  PL: 124.8 mg/dL
  RALB: 2.9 g/dL
  TBIL: 0.016 mg/dL
  TC: 68.4 mg/dL
  TG: 55.2 mg/dL
  TP: 5.2 g/dL
  gamma-GTP: 1.2 IU/L
10 mg/kg, 6 h, dose level Low
  TERMINAL_BW: 204.9 g
  APTT: 24.2 s
  Bas: 0%
  Eos: 1%
  Fbg: 286.8 mg/dL
  Ht: 41.2%
  Lym: 77.6%
  MCH: 20.6 pg
  MCHC: 32.2%
  MCV: 64 fL
  Mono: 2.8%
  Neu: 17.8%
  PT: 15.9 s
  Plat: 131 x10_4/uL
  RBC: 643.6 x10_4/ul
  Ret: 6.3%
  WBC: 115.8 x10_2/uL
  KIDNEY_L: 1 g
  KIDNEY_R: 1 g
  KIDNEY_TOTAL: 2 g
  LIVER: 9.1 g
  ALP: 1291.4 IU/L
  ALT: 43.4 IU/L
  BUN: 10 mg/dL
  CRE: 0.2 mg/dL
  DBIL: 0 mg/dL
  GLC: 180.6 mg/dL
  IP: 9.1 mg/dL
  K: 4.3 meq/L
  LDH: 174.2 IU/L
  PL: 134.6 mg/dL
  RALB: 3 g/dL
  TBIL: 0.016 mg/dL
  TC: 72.8 mg/dL
  TG: 76.2 mg/dL
  TP: 5.5 g/dL
  gamma-GTP: 1.6 IU/L
10 mg/kg, 9 h, dose level Low
  TERMINAL_BW: 197.5 g
  APTT: 25.3 s
  Bas: 0%
  Eos: 1%
  Fbg: 294.6 mg/dL
  Ht: 40.2%
  Lym: 73%
  MCHC: 32.6%
  Mono: 2.4%
  Neu: 23.4%
  PT: 15.7 s
  Plat: 131.4 x10_4/uL
  RBC: 644.2 x10_4/ul
  Ret: 5.7%
  WBC: 86.3 x10_2/uL
  KIDNEY_L: 0.9 g
  KIDNEY_R: 0.9 g
  KIDNEY_TOTAL: 1.8 g
  LIVER: 8 g
  ALP: 1344 IU/L
  ALT: 37.4 IU/L
  AST: 77 IU/L
  BUN: 11.2 mg/dL
  CRE: 0.2 mg/dL
  DBIL: 0 mg/dL
  GLC: 177.8 mg/dL
  IP: 9.3 mg/dL
  K: 4.4 meq/L
  LDH: 180.2 IU/L
  Na: 140 meq/L
  PL: 121 mg/dL
  RALB: 2.9 g/dL
  TBIL: 0.012 mg/dL
  TC: 71.8 mg/dL
  TG: 44.6 mg/dL
  TP: 5.3 g/dL
  gamma-GTP: 1.4 IU/L
10 mg/kg, 24 h, dose level Low
  TERMINAL_BW: 204.3 g
  APTT: 23.3 s
  Bas: 0%
  Eos: 0.6%
  Fbg: 298.2 mg/dL
  Ht: 40.6%
  Lym: 80.2%
  MCHC: 32.1%
  MCV: 63.8 fL
  Mono: 2.8%
  PT: 16.6 s
  Plat: 122.3 x10_4/uL
  RBC: 637.8 x10_4/ul
  Ret: 4.7%
  WBC: 78.9 x10_2/uL
  KIDNEY_L: 0.9 g
  KIDNEY_R: 1 g
  KIDNEY_TOTAL: 1.9 g
  LIVER: 9 g
  ALP: 1748.8 IU/L
  AST: 69.8 IU/L
  BUN: 15.6 mg/dL
  CRE: 0.2 mg/dL
  DBIL: 0 mg/dL
  GLC: 180.8 mg/dL
  IP: 7.2 mg/dL
  K: 4.5 meq/L
  LDH: 208.6 IU/L
  PL: 140.6 mg/dL
  RALB: 3.1 g/dL
  TBIL: 0.006 mg/dL
  TC: 74.2 mg/dL
  TG: 75.6 mg/dL
  TP: 5.5 g/dL
  gamma-GTP: 1.6 IU/L
30 mg/kg, 3 h, dose level Middle
  TERMINAL_BW: 205.5 g
